From patent publication US7399777B2, “Diarylcycloalkyl derivatives, processes for their preparation and their use as pharmceuticals” (Sanofi-Aventis Deutschland GmbH, priority 2001, dated 2008)

The compounds below were run against T1, human PPARα (Homo sapiens, UniProt Q07869) (assay: PPARα reporter cell line assay (stably transfected HEK cells, GR-GAL4-PPARα fusion protein, firefly luciferase reporter)). Conditions: agonist activity in HEK PPARα reporter cell line; 24 h incubation; luciferase luminescence.
T1 construct: expressed in transfected cells; host or cells: HEK cells (human embryo kidney), stably transfected with pcDNA3-GR-GAL4-humanPPARα and the luciferase reporter pdeltaMG4LZ
T1 sequence (Q07869 167-468): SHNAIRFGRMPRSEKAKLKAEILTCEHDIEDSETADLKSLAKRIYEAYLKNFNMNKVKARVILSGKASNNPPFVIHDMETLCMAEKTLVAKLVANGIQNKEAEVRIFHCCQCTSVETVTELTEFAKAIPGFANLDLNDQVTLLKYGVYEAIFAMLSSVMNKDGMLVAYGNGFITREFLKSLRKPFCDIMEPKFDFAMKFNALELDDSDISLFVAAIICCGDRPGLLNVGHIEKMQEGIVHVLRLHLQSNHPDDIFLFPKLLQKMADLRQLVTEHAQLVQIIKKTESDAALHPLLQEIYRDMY
Type: cell-based
Excerpt: To analyze the effectiveness of substances which bind to human PPARα, activating it in agonistic manner, a stable transfected HEK cell line (HEK=human embryo kidney) designated here as “PPARα reporter cell line” is used. It contains two genetic elements, a firefly luciferase reporter element and a PPARα fusion protein (GR-GAL4-PPARα) which controls the expression of the firefly luciferase reporter element in a PPARα ligand dependent way.
The PPARα reporter cell line was established in two steps: First, the firefly luciferase reporter element was constructed and stably transfected into HEK cells. Five DNA binding sites for the yeast transcription factor GAL4 (five repetitions of the sequence 5′-CGGAGTACTGTCCTCCGAG-3′) (SEQ ID NO:1) were cloned 5′ upstream of a 68 bp minimal RNA polymerase II promoter from the GR mouse mammary tumor virus long terminal repeat (accession # V01175) providing a CCAAT-box as well as a TATA-element. Cloning and sequencing was done as described by Sambrook J. et. al. (Molecular cloning, Cold Spring Harbor Laboratory Press, 1989). The complete Photinus pyralis luciferase gene (accession # M 15077) was cloned 3′ downstream of the GAL4 binding sites and the MMTV minimal promoter. The firefly luciferase reporter element consisting of 5 GAL4 binding sites, the MMTV minimal promoter and the full length luciferase gene was recloned into a plasmid backbone harboring a Zeozin resistence gene leading to plasmid “pdeltaMG4LZ”. This vector was transfected in HEK cells as described by Ausubel, F. M. et al. (Current protocols in molecular biology, Vol. 1-3, John Wiley & Sons, Inc., 1995). Stable clones have been selected using Zeozin as a selection agent (0.5 mg/ml).
In a second step, the PPARα fusion protein (GR-GAL4-PPARα) that controls expression of the firefly luciferase reporter element, was stably integrated in this cell background. For this purpose the cDNAs coding for the N-terminal 76 amino acids of the human glucocorticoid receptor (“GR”, accession # P04150) have been linked to amino acids 1-147 of the yeast GAL4-protein (accession # P04386) followed by the ligand binding domain of humanPPARα (amino acids S167-Y468, accession # S74349). The GR-GAL4-human PPARα construct was cloned into plasmid pcDNA3 (Invitrogen) were its expression is driven constitutively by the Cytomegalovirus promoter. The plasmid pcDNA3-GR-GAL4-humanPPARα was transfected in a stable HEK-cell clone that already contained the firefly luciferase reporter element described above. A double-transfected cell line containing both, the firefly luciferase reporter element as well as the GR-GAL4-humanPPARα fusion protein, has been selected on medium supplemented with Zeozin (0.5 mg/ml) and G418 (0.5 mg/ml).
The activity of PPARα agonists is determined in a three day test, described below:
The PPARα reporter cell line is cultivated up to 80% confluence in DMEM medium (# 41965-039, Life Technologies) with the following additives: 10% cs-FCS (fetal calf serum, #SH-30068.03, Hyclone), antibiotics (0.5 mg/ml of zeozin [#R250-01, Invitrogen], 0.5 mg/ml of G418 [#10131-019, Life Technologies], 1% penicillin streptomycin solution [#15140-031, Life Technologies]) and 2 mM of L-glutamine (#25030-032, Life Technologies). Cultivation is carried out in standard cell culture bottles (# 33111, Becton Dickinson) in a cell culture incubator at 37° C. and 5% CO2. The 80% confluent cells are washed once with 30 ml of PBS (#14190-094, Life Technologies), treated with 2 ml of trypsin solution (#25300-054, Life Technologies) at 37° C. for 2 min, taken up in 5 ml of the medium described above and counted in a cell counter. After dilution to 500,000 cells/ml, in each case 35,000 cells are sown into each well of a 96-well microtiter plate having a clear plastic bottom (#3610, Coming Costar). The plates are incubated in a cell incubator at 37° C. and 5% CO2 for 24 h.
The PPARα agonists to be tested are dissolved in DMSO at a concentration of 10 mM. […]

Row | Structure (SMILES) | EC50
1 | Cc1cccc(CO[C@@H]2CCC[C@H](OCc3nc(-c4ccc(Cl)cc4)oc3C)C2)c1C(=O)O [LII, 2-{1R,3S-3-[2-(4-Chlorophenyl)-5-methyloxazol-4-ylmethoxy]cyclohexyloxymethyl}-6-methylbenzoic acid] | 0.1 nM
2 | Cc1ccc(-c2nc(CO[C@H]3CCC[C@@H](OCc4cccc(C)c4C(=O)O)C3)c(C)o2)c(C)c1 [LV, 2-{1R,3S-3-[2-(2,4-Dimethylphenyl)-5-methyloxazol-4-ylmethoxy]cyclohexyloxymethyl}-6-methylbenzoic acid] | 0.09 nM
3 | Cc1cccc(CO[C@@H]2CCC[C@H](OCc3nc(-c4ccc(OC(F)(F)F)cc4)oc3C)C2)c1C(=O)O [LXX, 2-methyl-6-[(1R,3S)-3-(5-methyl-2-(4-trifluoromethoxyphenyl)-oxazol-4-ylmethoxy)-cyclohexyloxymethyl]-benzoic acid] | 0.28 nM
4 | Cc1cccc(CO[C@@H]2CCC[C@H](COCc3coc(-c4ccc(F)cc4)n3)C2)c1C(=O)O (racemic) [Example XXIV, rac-cis-2-{3-[2-(4-Fluorophenyl)oxazol-4-ylmethoxymethyl]cyclohexyloxymethyl}-6-methylbenzoic acid] | 0.9 nM
5 | Cc1ccccc1-c1nc(CO[C@H]2CCC[C@@H](OCc3cccc(C)c3C(=O)O)C2)c(C)o1 [LVI, 2-{1R,3S-3-[2-(2-Methylphenyl)-5-methyloxazol-4-ylmethoxy]cyclohexyloxymethyl}-6-methylbenzoic acid] | 0.54 nM
6 | COc1ccc(-c2nc(CO[C@H]3CCC[C@@H](OCc4cccc(C)c4C(=O)O)C3)c(C)o2)cc1OC [LVIII, 2-{1R,3S-3-[2-(3,4-Dimethoxyphenyl)-5-methyloxazol-4-ylmethoxy]cyclohexyloxymethyl}-6-methylbenzoic acid] | 0.46 nM

Results, then the compound that gave them:

Row | EC50 | Structure (SMILES)
7 | 0.13 nM | Cc1cccc(CO[C@@H]2CCC[C@H](OCc3nc(-c4cccc(OC(F)(F)F)c4)oc3C)C2)c1C(=O)O [LVII, 2-{1R,3S-3-[2-(3-Trifluoromethoxyphenyl)-5-methyloxazol-4-ylmethoxy]cyclohexyloxymethyl}-6-methylbenzoic acid]
8 | 0.62 nM | Cc1cccc(CO[C@@H]2CCC[C@H](OCc3nc(-c4cccc(C#N)c4)oc3C)C2)c1C(=O)O [LIX, 2-{1R,3S-3-[2-(3-Cyanophenyl)-5-methyloxazol-4-ylmethoxy]cyclohexyloxymethyl}-6-methylbenzoic acid]
9 | 10 nM | Cc1cccc(CO[C@H]2CCC[C@@H](OCc3nc(-c4ccccc4)oc3C)C2)c1C(=O)O [Example LXI, 2-Methyl-6-[1S,3R-3-(5-methyl-2-phenyloxazol-4-ylmethoxy)cyclohexyloxymethyl]benzoic acid]
10 | 0.25 nM | Cc1cccc(CO[C@@H]2CCC[C@H](OCc3nc(-c4cccc(F)c4)oc3C)C2)c1C(=O)O [XLVIII, 2-{1R,3S-3-[2-(3-Fluoro-phenyl)-5-methyl-oxazol-4-ylmethoxyl]-cyclohexyloxymethyl}-6-methylbenzoic acid]
11 | 0.48 nM | Cc1cccc(CO[C@@H]2CCC[C@H](OCc3nc(-c4cccc(Br)c4)oc3C)C2)c1C(=O)O [LXVI, 2-{1R,3S-3-[2-(3-Bromophenyl)-5-methyloxazol-4-ylmethoxy]cyclohexyloxymethyl}-6-methylbenzoic acid]
